Reference: patent publication US6107275A, “Cyclic Antiplatelet peptides with pseudo-bond” (Merrell Pharmaceuticals Inc., priority 1997, dated 2000)

How the values were obtained:
[1] = target: T1, Purified GPIIbIIIa (Homo sapiens, UniProt P05106+P08514); test: GPIIbIIIa (fibrinogen) enzyme-linked immunoassay (ELISA); conditions: purified human platelet GPIIbIIIa binding to immobilized fibrinogen; read-out: GPIIbIIIa (Fibrogen ELISA IC50)
T1 construct: GPIIbIIIa was purified from human platelets; from tissue; host or cells: human platelets
T1 sequence (P08514 32-887 limits assumed): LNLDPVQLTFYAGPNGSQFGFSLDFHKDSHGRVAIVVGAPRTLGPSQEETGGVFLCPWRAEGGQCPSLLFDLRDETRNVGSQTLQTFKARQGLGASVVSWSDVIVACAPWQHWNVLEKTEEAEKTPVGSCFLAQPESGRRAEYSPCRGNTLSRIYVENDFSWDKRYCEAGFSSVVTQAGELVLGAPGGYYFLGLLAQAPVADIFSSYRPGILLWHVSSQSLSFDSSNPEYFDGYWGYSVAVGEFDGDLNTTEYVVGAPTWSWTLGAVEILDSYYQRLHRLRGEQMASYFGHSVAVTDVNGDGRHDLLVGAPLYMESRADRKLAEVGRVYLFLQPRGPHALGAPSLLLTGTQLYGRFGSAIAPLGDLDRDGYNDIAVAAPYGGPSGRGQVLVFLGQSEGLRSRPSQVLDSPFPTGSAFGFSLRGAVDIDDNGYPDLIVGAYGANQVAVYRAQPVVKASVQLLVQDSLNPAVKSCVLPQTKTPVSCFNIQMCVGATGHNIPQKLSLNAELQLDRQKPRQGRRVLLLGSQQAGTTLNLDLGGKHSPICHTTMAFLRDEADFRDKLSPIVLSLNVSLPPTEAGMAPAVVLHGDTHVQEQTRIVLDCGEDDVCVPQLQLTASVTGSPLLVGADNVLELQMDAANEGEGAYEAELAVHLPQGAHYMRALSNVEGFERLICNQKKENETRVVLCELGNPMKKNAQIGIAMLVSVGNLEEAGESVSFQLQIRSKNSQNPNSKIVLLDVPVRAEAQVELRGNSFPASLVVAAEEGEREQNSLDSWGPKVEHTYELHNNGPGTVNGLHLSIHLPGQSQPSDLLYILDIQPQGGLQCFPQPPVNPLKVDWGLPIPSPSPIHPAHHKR
T1 sequence (P08514 891-1039 partner limits assumed): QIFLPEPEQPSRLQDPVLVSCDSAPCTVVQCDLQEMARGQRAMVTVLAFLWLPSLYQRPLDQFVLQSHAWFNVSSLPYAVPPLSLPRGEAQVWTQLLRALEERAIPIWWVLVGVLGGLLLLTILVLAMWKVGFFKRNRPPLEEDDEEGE
T1 sequence (P05106 27-788): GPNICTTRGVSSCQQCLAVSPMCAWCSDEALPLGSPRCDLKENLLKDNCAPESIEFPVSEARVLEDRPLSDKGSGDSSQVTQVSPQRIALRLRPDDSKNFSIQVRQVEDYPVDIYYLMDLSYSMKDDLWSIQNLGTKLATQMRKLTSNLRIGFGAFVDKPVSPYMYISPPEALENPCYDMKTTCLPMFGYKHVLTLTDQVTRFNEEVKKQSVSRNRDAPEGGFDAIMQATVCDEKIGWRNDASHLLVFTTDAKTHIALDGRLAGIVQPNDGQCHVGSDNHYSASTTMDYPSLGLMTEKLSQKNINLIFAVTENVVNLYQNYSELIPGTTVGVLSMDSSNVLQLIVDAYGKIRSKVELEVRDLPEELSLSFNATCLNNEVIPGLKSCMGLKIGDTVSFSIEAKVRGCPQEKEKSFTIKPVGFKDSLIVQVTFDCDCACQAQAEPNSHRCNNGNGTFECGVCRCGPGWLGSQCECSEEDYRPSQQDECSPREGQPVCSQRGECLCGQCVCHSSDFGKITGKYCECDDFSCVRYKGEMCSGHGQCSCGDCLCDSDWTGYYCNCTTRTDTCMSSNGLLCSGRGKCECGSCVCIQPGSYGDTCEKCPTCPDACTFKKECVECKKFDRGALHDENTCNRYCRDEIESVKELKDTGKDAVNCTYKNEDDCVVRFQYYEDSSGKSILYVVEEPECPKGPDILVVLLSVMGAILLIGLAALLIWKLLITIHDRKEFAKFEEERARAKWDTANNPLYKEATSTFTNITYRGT
Experimental: GPIIbIIIa Enzyme-Linked Immunoassay
Low solubility fibrinogen, prepared as described by Lipinska et al., J. Lab. Clin. Med., 84, 509-516 (1974) (human, KABI) was immobolized at 5 μg/well on Immunolon 2-96 well plates (inculated overnight at 4° to bind to the wells). The wells were blocked with 0.5% bovine serum albumin in buffer A ([…] Tris-HCl, pH 7.5, 2 mM CaCl2, 120 mM […], and 0.02% NaN3) for two hours at room temperature. All subsequent steps were carried out at room temperature. The wells were washed three times with buffer A plus 0.5% Tween 20 (BioRad). Purified GPIIbIIIa (2 μg/well) plus synthetic peptides supplements at the indicated concentrations were conincubated for 90 to 120 min with immobilized fibrinogen. The wells were washed as above, then the anti-GPIIbIIIa monoclonal antibody, CD41a, was added to each well and incubated for 60 min. After another three washes, goat anti-mouse horseradish peroxidase conjugate was added to each well (60 min). The wells were washed three times with buffer A plus detergent, followed by two washes with buffer A minus detergent. The peroxidase substrate, 3,3',5,5'-tetramethylbenzidine (Kirkegaard and Perry Laboratories, Inc.) was added to the wells for color development. The reaction was stopped with 0.3N H2 SO4, and absorbances were measured at 450 mn using a microplate reader (Multiscan II, Flow-Titertek).
GPIIbIIIa was purified from human platelets as described by Fitzgerald, et al., Anal. Biochem., 151, 169-177 (1985), except that the final gel purification step was performed with an HW55 size exclusion column (Waters, Advanced Protein Purification System), instead of Sephacryl S-300. The protein, greater than 90% pure as assessed by SDS polyacrylamide gel electrophoresis, was stored at -80° C. in small aliquots.

[2] = target: human platelets (Homo sapiens, UniProt P05106+P08514); test: 125I-Fibrinogen binding to platelets; conditions: 0.1 μM 125I-fibrinogen, thrombin or activator peptide stimulus
Chain of human platelets (P08514 32-1039): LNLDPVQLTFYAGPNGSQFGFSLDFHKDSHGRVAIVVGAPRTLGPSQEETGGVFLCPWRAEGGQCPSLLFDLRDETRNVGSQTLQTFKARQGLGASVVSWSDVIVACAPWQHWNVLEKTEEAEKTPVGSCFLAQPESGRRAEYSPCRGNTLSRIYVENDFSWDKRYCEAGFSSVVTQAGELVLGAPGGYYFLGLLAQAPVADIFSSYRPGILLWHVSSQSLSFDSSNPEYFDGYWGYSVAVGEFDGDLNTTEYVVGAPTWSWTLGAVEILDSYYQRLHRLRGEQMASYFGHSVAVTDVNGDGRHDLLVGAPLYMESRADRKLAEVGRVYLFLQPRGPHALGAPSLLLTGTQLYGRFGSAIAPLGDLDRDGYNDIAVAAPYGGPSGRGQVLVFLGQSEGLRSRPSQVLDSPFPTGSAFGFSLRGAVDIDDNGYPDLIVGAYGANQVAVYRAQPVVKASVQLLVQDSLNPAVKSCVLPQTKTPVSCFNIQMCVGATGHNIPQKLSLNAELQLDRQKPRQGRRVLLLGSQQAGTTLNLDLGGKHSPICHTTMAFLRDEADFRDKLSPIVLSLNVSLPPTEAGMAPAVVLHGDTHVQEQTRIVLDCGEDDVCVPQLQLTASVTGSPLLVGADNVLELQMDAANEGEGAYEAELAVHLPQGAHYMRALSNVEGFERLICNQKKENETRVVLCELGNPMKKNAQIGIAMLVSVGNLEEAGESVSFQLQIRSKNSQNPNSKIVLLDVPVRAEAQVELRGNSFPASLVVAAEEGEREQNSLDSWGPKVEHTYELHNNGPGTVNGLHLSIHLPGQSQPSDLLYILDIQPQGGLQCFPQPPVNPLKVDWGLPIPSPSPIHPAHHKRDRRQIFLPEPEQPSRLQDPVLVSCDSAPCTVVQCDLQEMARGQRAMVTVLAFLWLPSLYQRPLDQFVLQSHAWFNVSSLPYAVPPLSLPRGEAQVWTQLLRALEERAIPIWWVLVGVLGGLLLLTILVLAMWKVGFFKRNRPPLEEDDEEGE
Chain of human platelets (P05106 27-788): as the sequence (P05106 27-788) above
Experimental: Preparation of Human Platelets
Human blood was collected by venipuncture in tubes containing one-tenth volume of acid-citrate-dextrose as an anticoagulant. Platelet-rich plasma was prepared by centrifugation of the blood for 10 min at 500 g at room temperature. The platelet-rich plasma was decanted and one-tenth volume of acid-citrate-dextrose was added followed by centrifugation at 1000 g at room temperature for 10 min to sediment the platelets. The platelets were suspended in two ml modified Tyrode's buffer (2 M NaCl, 0.5 M dextrose, 0.2 M NaHCO3, 0.1 M KCl, 0.1 M MgCl2, 0.1 M NaH2 PO4 and 0.1 M HEPES, pH 7.3) containing 0.35% bovine serum albumin and then filtered on a 50 ml column of Sepharose 2B (Pharmacia) equilibrated with Tyrode's buffer. Finally, the platelets were counted in an automated hematology analyzer.
Human low solubility fibrinogen (Kabi) was prepared as described previously (Lipinska et al., 1974). For ^125 I labeling, fibrinogen (1 mg) was incubated with three Iodo-Beads (Pierce Chemical Co.) and 1 mCi of Na^125 I for 15 min after with ^125 I-fibrinogen was separated from free radioactivity by filtration through a PD-10 column (Pharmacia). The specific activity was approximately 1-5×10^17 CPM/mol fibrinogen.
Binding of fibrinogen to human platelets was performed as described by Plow and Ginsberg (1981). Binding assays contained, in a volume of 0.2 ml, 1-2×10^7 platelets, 0.1 μM ^125 I-fibrinogen, 2 mM CaCl2 and 0.1 U/ml thrombin or various concentrations of activator peptides as a stimulus. Incubations were carried out in 1.2 ml Eppendorf microcentrifuge tubes at room temperature for 30 min and then duplicate 75 μl aliquots were layered onto 0.4 ml of 20% sucrose in Tyrode's buffer containing 1% bovine serum albumin and platelets were sedimented by centrifugation at 10,000 g for 5 min in a Beckman microcentrifuge. Tips of the centrifuge tubes were amputated and bound ^125 I-fibrinogen was measured in a gamma counter (LKB/Pharmacia). Nonspecifically bound radioactivity was determined in incubations in which activators were excluded and these values were 1-5% of those obtained with thrombin activation.

[3] = target: Human platelet rich plasma (PRP) (Homo sapiens, UniProt P05106+P08514); conditions: read-out: Platelet Aggregation ADP Induced IC50, ADP (1 μM)
Chain of Human platelet rich plasma (PRP) (P08514 32-1039): as the sequence (P08514 32-1039) above
Chain of Human platelet rich plasma (PRP) (P05106 27-788): as the sequence (P05106 27-788) above
Experimental: Platelet Aggregation In Vitro
Human platelet rich plasma (PRP) was prepared by centrifugation at 200×g for 10 min. at room temperature. Platelet poor plasma (PPP) was prepared by centrifugation at 2000×g for 10 min. PRP was exposed only to plastic laboratory ware. All experiments were completed within 3 hr of blood collection. Platelet aggregation was measured photometrically using a Chrono-log dual channel aggregometer (Chrono-log Corp., Haverstown, Pa. 19083). One hundred percent light transmission was defined with autologus PPP. Percent maximal change in light transmission was determined from PRP following addition of ADP (1 μM) or thrombin. […] MDL 102,530 was incubated with PRP (0.45 ml) for 30 sec prior to the addition of ADP or thrombin. Aggregation was measured in a total volume of 0.5 ml. Inhibitory responses were expressed s percent inhibition when compared to a control value. The concentration resulting in 50% inhibition of aggregation (IC50) was calculated by simple linear regression.

Compound	IC50 [1] [µM]	IC50 [2] [µM]	IC50 [3] [µM]
C[C@H]1CN(C(=O)CCN)[C@@H](CCCNC(=N)N)C(=O)NCC(=O)N[C@@H](CC(=O)O)C(=O)N[C@H](C(=O)NCc2ccccc2)CCC(=O)N1 [III]	3	2.4	49.2
C[C@H]1CN(CCCC(=O)O)[C@@H](CCCNC(=N)N)C(=O)NCC(=O)N[C@@H](CC(=O)O)C(=O)N[C@H](C(=O)NCc2ccccc2)CCC(=O)N1 [II]	0.54	1.2	–
C[C@H]1CN(CCCc2ccccc2)[C@@H](CCCNC(=N)N)C(=O)NCC(=O)N[C@@H](CC(=O)O)C(=O)N[C@H](C(=O)NCc2ccccc2)CCC(=O)N1 [IV]	0.3	0.27	6.4
C[C@H]1CN[C@@H](CCCNC(=N)N)C(=O)NCC(=O)N[C@@H](CC(=O)O)C(=O)N[C@H](C(=O)NCc2ccccc2)CCC(=O)N1 [I]	0.2	2.4	–
